The values below are quoted from earlier work in US5418161A (The Chinese University of Hong Kong, priority 1993, dated 1995).

Take `O=C1/C(=C2\Nc3ccc(S(=O)(=O)O)cc3C2=O)Nc2ccc(S(=O)(=O)O)cc21` [indigo carmine]: the solubility in water entry is recorded as “soluble”.
